The values that follow are results of earlier work, collected in US8425924B2, “Propylene compositions containing a pyrethroid and products made therefrom” (ExxonMobil Chemical Patents Inc., priority 2009, dated 2013).

The conditions of this data set: thermal stability of the pyrethroid.

Turning to `C=CCC1=C(C)C(OC(=O)[C@@H]2[C@@H](C=C(C)C)C2(C)C)CC1=O` (some centres unmarked) [allethrin I], the “stable up to a temperature” value was “more than 400 °C”.

Consider `CC1(C)[C@H](C(=O)O[C@H](C#N)c2cccc(Oc3ccccc3)c2)[C@@H]1C=C(Br)Br` [deltamethrin], for which the “stable up to a temperature” value was “up to 320 °C”.
